Results published in US4797417A, “Furanone derivatives, process for preparation thereof and use thereof” (Fujisawa Pharmaceutical Co., Ltd., priority 1982, dated 1989).
Read-outs that look alike come from different tables or passages of the source.

Target: T1, aldose reductase (Oryctolagus cuniculus, UniProt P15122)
T1 construct: The lenses were homogenized with 3 volumes of distilled water at 4° C; from tissue; host or cells: rabbit lens (homogenate, 10,000 G supernatant, dialysed)
Experiment: Aldose reductase-inhibiting activity, enzymatic assay (decrease in NADPH, D,L-glyceraldehyde substrate, rabbit lens enzyme solution)
Assay type: biochemical
Details: concentration at which the aldose reductase activity is inhibited by 50%, pH 6.2, 35° C., 2 minutes
Protocol: (1) Enzymatic assay method:
The above reactants were mixed and reacted at 35° C. for 2 minutes and the decrease in amount of NADPH was measured with an Automatic Reaction Rate Analyzer Model LKB-8600 of LKB Producter A. B. The enzyme activity at achange in absorbance of 0.001 per minute was taken as unity.
(2) Method for preparing an enzyme solution
Rabbit eyes were enucleated and the lenses collected. The lenses were homogenized with 3 volumes of distilled water at 4° C. (All the subsequent procedures were also performed at 4° C.) and centrifuged at 10,000 G for 60 minutes. The supernatant was dialyzed against 2 liters of 0.05 M of saline solution and the interal fluid was used as the enzyme solution.

Row | Compound | IC50 (read-out: IC50) [M] | IC50 (IC50 (M)) [M]
1 | O=C(O)CCC1OC(=O)C(O)=C1c1ccccc1 (single isomer, unassigned) [Example 30-2, (d)-3-(4-hydroxy5-oxo-3-phenyl-2,5-dihydro-2-furyl)propionic acid] | 2.5e-06 | 
2 | O=C(O)CCC1OC(=O)C(O)=C1c1ccccc1 (single isomer, unassigned) [Example 30-3, (l)-3-(4-hydroxy-5-oxo-3-phenyl-2,5-dihydro-2-furyl)propionic acid] | 5.4e-07 | 
3 | CCOC(=O)CCC1OC(=O)C(OC)=C1c1ccccc1 (stereo not drawn) [Example 4, ethyl 3-(4-methoxy-5-oxo-3-phenyl-2,5-dihydro-2-furyl)propionate] | 2.2e-07 | 
4 | CCCCCOC1=C(c2ccccc2)C(CCC(=O)O)OC1=O (stereo not drawn) [Example 17, 3-(5-oxo-4-pentyloxy-3-phenyl2,5-dihydro-2-furyl)propionicacid] | 5e-08 | 
5 | COC1=C(c2ccccc2)C(CCC(=O)O)OC1=O (stereo not drawn) [Example 18, 3-(4-Methoxy-5-oxo-3-phenyl-2,5-dihydro-2-furyl)propionic acid] | 2.2e-07 | 
6 | COC1=C(c2ccc(Cl)cc2)C(CCC(=O)O)OC1=O (stereo not drawn) [Example 19, 3-[3-(4-Chlorophenyl)-4-methoxy-5-oxo-2,5-dihydro-2-furyl]propionic acid] | 1.5e-07 | 
7 | COC1=C(c2cccc(C(F)(F)F)c2)C(CCC(=O)O)OC1=O (stereo not drawn) [Example 20, 3-[4-Methoxy-5-oxo-3-(3-trifluoromethylphenyl)2,5-dihydro-2-furyl]propionicacid] |  | 4.8e-07
8 | CCOC1=C(c2ccccc2)C(CCC(=O)O)OC1=O (stereo not drawn) [Example 22, 3-(4-ethoxy-5-oxo-3-phenyl2,5-dihydro-2-furyl)propionic acid] | 2e-07 | 
9 | O=C(O)CCC1OC(=O)C=C1c1ccccc1 (stereo not drawn) [Example 29-8, 3-(2,5-dihydro5-oxo-3-phenyl-2-furyl)propionic acid] | 5.4e-07 | 
